For 31 compounds, IC50 results are on record in patent publication US12522603B2, “Inhibitors of gas for treating autoinflammatory diseases and cancer metastasis” (The Rockefeller University, priority 2019, dated 2026).

Experiment [1] has as its system THP1 cells. Kind of experiment: Cell-based TR-FRET cGAMP assay in THP1 cells. More on the design: species or system human. To be noted: Table 6, PMA-differentiated THP1 cells, 90-bp dsDNA transfection 24 h.
The target of experiment [2] is h-cGAS (Homo sapiens (Human), UniProt Q8N884). Kind of experiment: RapidFire mass spectroscopy assay (cGAMP formation). The class given is biochemical.
Experiment [3] deals with THP1-Dual cells. Kind of experiment: Cell-based Lucia luciferase assay in THP1-Dual cells. Particulars: Homo sapiens, Table 4, 100-bp dsDNA transfection 24 h, secreted luciferase reporting interferon-induced gene expression.
The target in experiment [4] is Human cGAS (Homo sapiens (Human), UniProt Q8N884). Kind of experiment: cGAS enzyme assay using TR-FRET. The class given is biochemical. Particulars: Table 5; human cGAS 5 nmol/L, 90 bp dsDNA 100 nmol/L, TR-FRET cGAMP detection; read-out: hcGAS enzyme assay.
Where [5] appears, read: Table 2, full-length h-cGAS 100 nM, dsDNA 25 nM, ATP and GTP 100 μM, 7 h RT.
Where [6] appears, read: Table 3, compounds from related application PCT/US2019/016673, same RapidFire assay.

Chain of Human cGAS (Q8N884 whole entry): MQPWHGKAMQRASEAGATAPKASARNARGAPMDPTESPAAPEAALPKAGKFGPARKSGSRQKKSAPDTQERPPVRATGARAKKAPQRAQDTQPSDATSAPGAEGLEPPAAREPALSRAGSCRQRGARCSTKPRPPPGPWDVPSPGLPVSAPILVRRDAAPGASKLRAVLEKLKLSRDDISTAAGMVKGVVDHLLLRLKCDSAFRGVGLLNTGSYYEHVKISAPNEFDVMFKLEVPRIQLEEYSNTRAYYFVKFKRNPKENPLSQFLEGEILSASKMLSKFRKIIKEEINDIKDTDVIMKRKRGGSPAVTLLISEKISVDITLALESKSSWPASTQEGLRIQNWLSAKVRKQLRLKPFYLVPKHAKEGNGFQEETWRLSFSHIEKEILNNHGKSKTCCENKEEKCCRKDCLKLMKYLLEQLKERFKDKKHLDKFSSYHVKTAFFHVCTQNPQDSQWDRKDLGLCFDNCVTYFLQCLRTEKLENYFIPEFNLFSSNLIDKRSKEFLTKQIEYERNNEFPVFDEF
Chain of h-cGAS (Q8N884 whole entry): as above

On to “1-[7,8-Dichloro-10-(1-methyl-1H-pyrazol-3-yl)-3,4-dihydropyrazino[1,2-b]indazol-2(1H)-yl]-2-hydroxyethan-1-one [Example 67]”, for which, in experiment [1], the IC50 is 0.14 µM.

With `COc1nc2c3c([nH]c2c(Cl)c1Cl)CCN(C(=O)CO)C3` [Example 1, 1-(3,4-Dichloro-2-methoxy-5,6,7,9-tetrahydro-8H-pyrrolo[3,2-b:4,5-c′]dipyridin-8-yl)-2-hydroxyethan-1-one], the IC50 in experiment [2] (setting [5]) is 0.0616 µM; in experiment [3] it was 10.7 µM; in experiment [4] it was 0.19 µM; in experiment [1] (Homo sapiens, THP-1), 2.5 µM.

Turning to `COCC(=O)N1CCc2[nH]c3cc(Cl)ncc3c2C1` [Example 2, 1-(7-Chloro-1,3,4,5-tetrahydro-2H-pyrrolo[3,2-c:4,5-c′]dipyridin-2-yl)-2-methoxyethan-1-one], the IC50 is 2.41 µM in experiment [2] (setting [5]) and above 30 µM in experiment [4].

On to `COCC(=O)N1CCn2nc3c(Cl)c(Cl)ccc3c2C1` [Example 3, 1-(7,8-Dichloro-3,4-dihydropyrazino[1,2-b]indazol-2(1H)-yl)-2-methoxyethan-1-one], for which the IC50 in experiment [2] (setting [5]) was 2.47 µM.

Take `O=C(CO)N1CCn2nc3c(Cl)c(Cl)ccc3c2C1` [Example 4, 1-(7,8-Dichloro-3,4-dihydropyrazino[1,2-b]indazol-2(1H)-yl)-2-hydroxyethan-1-one]: the results for the IC50 in experiment [2] (setting [5]) and in experiment [4] were 1.46 µM and 21 µM, respectively.

For the compound `COCC(=O)N1CCc2nn3c(Cl)c(Cl)ccc3c2C1` [Example 5, 1-(7,8-Dichloro-3,4-dihydropyrazolo[1,5-a:4,3-c′]dipyridin-2(1H)-yl)-2-methoxyethan-1-one], the IC50 is 21.8 µM in experiment [2] (setting [5]) and above 30 µM in experiment [4].

The compound `O=C(CO)N1CCc2nn3c(Cl)c(Cl)ccc3c2C1` [Example 6, 1-(7,8-Dichloro-3,4-dihydropyrazolo[1,5-a:4,3-c′]dipyridin-2(1H)-yl)-2-hydroxyethan-1-one] had an IC50 in experiment [2] (setting [5]) of 20.8 µM.

Consider `Cn1ccc(-c2nc(Cl)c(Cl)c3[nH]c4c(c23)CN(C(=O)CO)CC4)n1` [Example 25, 1-[6,7-Dichloro-9-(1-methyl-1H-pyrazol-3-yl)-1,3,4,5-tetrahydro-2H-pyrrolo[3,2-c:4,5-c′]dipyridin-2-yl]-2-hydroxyethan-1-one], for which the IC50 in experiment [4] was 0.095 µM.

As for `COCC(=O)N1CCc2[nH]c3c(Cl)c(Cl)nc(-c4ccn(C)n4)c3c2C1` [Example 30, 1-[6,7-Dichloro-9-(1-methyl-1H-pyrazol-3-yl)-1,3,4,5-tetrahydro-2H-pyrrolo[3,2-c:4,5-c′]dipyridin-2-yl]-2-methoxyethan-1-one], the IC50 in experiment [4] stood at 0.21 µM.

As for `Cn1ccc(-c2nc(Cl)c(Cl)c3c2c2c(n3C)CCN(C(=O)CO)C2)n1` [Example 34, 1-[6,7-Dichloro-5-methyl-9-(1-methyl-1H-pyrazol-3-yl)-1,3,4,5-tetrahydro-2H-pyrrolo[3,2-c:4,5-c′]dipyridin-2-yl]-2-hydroxyethan-1-one], the IC50 in experiment [4] came out at 0.15 µM.

Take `Cn1ccc(-c2cc(Cl)c(F)c3nn4c(c23)CN(C(=O)CO)CC4)n1` [Example 64, 1-[8-Chloro-7-fluoro-10-(1-methyl-1H-pyrazol-3-yl)-3,4-dihydropyrazino[1,2-b]indazol-2(1H)-yl]-2-hydroxyethan-1-one]: the IC50 in experiment [4] was determined as 0.18 µM.

For the compound `COCC(=O)N1CCn2nc3c(Cl)c(Cl)cc(-c4ccn(C)n4)c3c2C1` [Example 68, 1-[7,8-Dichloro-10-(1-methyl-1H-pyrazol-3-yl)-3,4-dihydropyrazino[1,2-b]indazol-2(1H)-yl]-2-methoxyethan-1-one], the IC50 in experiment [4] turned out to be 0.24 µM; in experiment [1] (Homo sapiens, THP-1) it was 0.33 µM.

For `Cn1ccc(-c2ccc(Cl)c3nn4c(c23)CN(C(=O)CO)CC4)n1` [Example 69, 1-[7-Chloro-10-(1-methyl-1H-pyrazol-3-yl)-3,4-dihydropyrazino[1,2-b]indazol-2(1H)-yl]-2-hydroxyethan-1-one], the IC50 in experiment [4] was 0.28 µM.

As to `Cc1nnc(-c2cc(Cl)c(F)c3nn4c(c23)CN(C(=O)CO)CC4)o1` [Example 70, 1-[8-Chloro-7-fluoro-10-(5-methyl-1,3,4-oxadiazol-2-yl)-3,4-dihydropyrazino[1,2-b]indazol-2(1H)-yl]-2-hydroxyethan-1-one], in experiment [4], the IC50 is 7.5 µM.

`Cc1noc(-c2cc(Cl)c(F)c3nn4c(c23)CN(C(=O)CO)CC4)n1` [Example 71, 1-[8-Chloro-7-fluoro-10-(3-methyl-1,2,4-oxadiazol-5-yl)-3,4-dihydropyrazino[1,2-b]indazol-2(1H)-yl]-2-hydroxyethan-1-one]: in experiment [4], the IC50 came out at 1.4 µM.

`Cn1ccc(-c2ncc(Cl)c3[nH]c4c(c23)CN(C(=O)CO)CC4)n1` [Example 72, 1-[6-Chloro-9-(1-methyl-1H-pyrazol-3-yl)-1,3,4,5-tetrahydro-2H-pyrrolo[3,2-c:4,5-c′]dipyridin-2-yl]-2-hydroxyethan-1-one]: the IC50 in experiment [4] turned out to be 0.25 µM.

Take `COCC(=O)N1CCc2[nH]c3c(Cl)cnc(-c4ccn(C)n4)c3c2C1` [Example 73, 1-[6-Chloro-9-(1-methyl-1H-pyrazol-3-yl)-1,3,4,5-tetrahydro-2H-pyrrolo[3,2-c:4,5-c′]dipyridin-2-yl]-2-methoxyethan-1-one]: the IC50 in experiment [4] amounted to 0.87 µM.

For `Cn1ccc(-c2ncc(Cl)c3c2c2c(n3C)CCN(C(=O)CO)C2)n1` [Example 74, 1-[6-Chloro-5-methyl-9-(1-methyl-1H-pyrazol-3-yl)-1,3,4,5-tetrahydro-2H-pyrrolo[3,2-c:4,5-c′]dipyridin-2-yl]-2-hydroxyethan-1-one], in experiment [4], the IC50 came to 0.29 µM.

For the compound `COc1nc2c3c([nH]c2c(F)c1Cl)CCN(C(=O)CO)C3` [Example 75, 1-(3-Chloro-4-fluoro-2-methoxy-5,6,7,9-tetrahydro-8H-pyrrolo[3,2-b:4,5-c′]dipyridin-8-yl)-2-hydroxyethan-1-one], the IC50 in experiment [4] turned out to be 0.55 µM.

Regarding `COc1nc2c3c([nH]c2c(Cl)c1Cl)C(C)(C)CN(C(=O)CO)C3` [Example 76, 1-(3,4-Dichloro-2-methoxy-6,6-dimethyl-5,6,7,9-tetrahydro-8H-pyrrolo[3,2-b:4,5-c′]dipyridin-8-yl)-2-hydroxyethan-1-one], in experiment [4], the IC50 turned out to be 0.85 µM.

As to `CCOc1nc2c3c([nH]c2c(Cl)c1Cl)CCN(C(=O)CO)C3` [Example 77, 1-(3,4-Dichloro-2-ethoxy-5,6,7,9-tetrahydro-8H-pyrrolo[3,2-b:4,5-c′]dipyridin-8-yl)-2-hydroxyethan-1-one], the IC50 in experiment [4] is 3 µM.

With `CCOc1nc2c3c([nH]c2c(F)c1Cl)CCN(C(=O)CO)C3` [Example 78, 1-(3-Chloro-2-ethoxy-4-fluoro-5,6,7,9-tetrahydro-8H-pyrrolo[3,2-b:4,5-c′]dipyridin-8-yl)-2-hydroxyethan-1-one], the IC50 in experiment [4] amounted to 3.7 µM.

In the case of `O=C(CO)N1CCc2[nH]c3c(Cl)c(Cl)c(OCC4CC4)nc3c2C1` [Example 79, 1-[3,4-Dichloro-2-(cyclopropylmethoxy)-5,6,7,9-tetrahydro-8H-pyrrolo[3,2-b:4,5-c′]dipyridin-8-yl]-2-hydroxyethan-1-one], in experiment [4], the IC50 worked out at 5.9 µM.

Regarding `O=C(CO)N1CCc2[nH]c3c(F)c(Cl)c(OCC4CC4)nc3c2C1` [Example 80, 1-[3-Chloro-2-(cyclopropylmethoxy)-4-fluoro-5,6,7,9-tetrahydro-8H-pyrrolo[3,2-b:4,5-c′]dipyridin-8-yl]-2-hydroxyethan-1-one], the IC50 in experiment [4] came out at 5 µM.

Turning to `O=C(CO)N1CCc2[nH]c3c(Cl)c(Cl)c(OC(F)F)nc3c2C1` [Example 81, 1-[3,4-Dichloro-2-(difluoromethoxy)-5,6,7,9-tetrahydro-8H-pyrrolo[3,2-b:4,5-c′]dipyridin-8-yl]-2-hydroxyethan-1-one], the IC50 in experiment [4] was 2.4 µM.

As to `O=C(CO)N1CCc2[nH]c3c(F)c(Cl)c(OC(F)F)nc3c2C1` [Example 82, 1-[3-Chloro-2-(difluoromethoxy)-4-fluoro-5,6,7,9-tetrahydro-8H-pyrrolo[3,2-b:4,5-c′]dipyridin-8-yl]-2-hydroxyethan-1-one], the IC50 in experiment [4] worked out at 15 µM.

`N#Cc1ccc2c3c([nH]c2c1C#N)CCN(C(=O)CO)C3` [TDI-006932, reference compound] came in with an IC50 in experiment [2] (setting [6]) above 25 µM.

With `O=C(CO)N1CCc2[nH]c3c(Cl)c(Cl)cc(-c4cn[nH]c4)c3c2C1` [TDI-007445, reference compound], in experiment [2] (setting [6]), the IC50 was determined as 0.0275 µM.

In the case of `O=C(CO)N1CCc2[nH]c3c(Cl)c(Cl)cc(-c4ccc(NC(=O)C(F)(F)F)cc4)c3c2C1` [TDI-008458, reference compound], the IC50 in experiment [2] (setting [6]) was 0.629 µM.

For the compound `O=C(CO)N1CCc2[nH]c3c(F)c(Cl)cc(N4CCS(=O)(=O)C4)c3c2C1` [TDI-008867, reference compound], the IC50 in experiment [2] (setting [6]) is 6.93 µM; in experiment [3] it was above 10 µM.

In the case of `Cc1cc(-c2ncn(C)n2)c2c3c([nH]c2c1Cl)CCN(C(=O)CO)C3` [TDI-008989, reference compound], the IC50 in experiment [2] (setting [6]) is 0.0459 µM; in experiment [3], 6.71 µM.
